How the values were obtained:
FOXN1 = assay: RT-PCR of FOXN1 expression in HHGMC; type: cell-based, human; settings: peptide 500 nM, 5 μM, 50 μM, 72 hours, FIG. 7
Method: (§1) Specifically, HHGMC (human hair germinal matrix cell, Sciencell, USA) was seeded in a 6-well culture plate at 4λ10^5 cells/well and then cultured in MSC complete medium (mesenchymal stem cell complete media) for 24 hours. Next, the medium was replaced with serum free MSC complete medium and cultured again for 24 hours. Then, the HHGMC was treated with the peptide of SEQ ID NO: 1 prepared in the Preparation Example at concentrations of 500 nM, 5 μM, and 50 μM, respectively, and cultured at 37° C. for 72 hours. As a positive control, EGF was treated at a concentration of 50 nM, and as a negative control, HHGMC without any treatment was used. After washing with PBS, RNA was isolated by treating with 300 μl of easy blue (intron, Korea). Next, cDNA was synthesized using a cDNA synthesis kit (enzynomics, Korea) by quantification using nano drop, and PCR was performed using primers for MSX2 and FOXN1 (base sequences of primer are listed in Table 4 below) and PCR premix (enzynomics, Korea). Electrophoresis was performed on a 1.5% agarose gel, and mRNA of MSX2 and FOXN1 was detected using a band analysis system (Bio-Rad gel image system).

Ha3-II = assay: RT-PCR of Ha3-II expression in HHORSC; type: cell-based, human; settings: peptide 500 nM, 5 μM, 50 μM, 72 hours, FIG. 6
Method: (§2) Specifically, HHORSC (human hair outer root sheath cell, Sciencell, USA) was seeded in a 6-well culture plate at 4λ10^5 cells/well and then cultured in MSC complete medium (mesenchymal stem cell complete media) for 24 hours. Next, the medium was replaced with serum free MSC complete medium and cultured again for 24 hours. Then, the HHORSC was treated with the peptide of SEQ ID NO: […] in the Preparation Example at concentrations of 500 nM, 5 μM, and 50 μM, respectively, and cultured at 37° C. for 72 hours. As a positive control, EGF was treated at a concentration of 50 nM, and as a negative control, HHORSC without any treatment was used. After washing with PBS, RNA was isolated by treating with 300 μl of easy blue (intron, Korea). Then, cDNA was synthesized using a cDNA synthesis kit (enzynomics, Korea) by quantification using nano drop, and PCR was performed using primers for Ha3-II, Keratin 5, Keratin 14, and Keratin 19 (base sequences of primer are listed in Table 3 below) and PCR premix (enzynomics, Korea). Electrophoresis was performed on a 1.5% agarose gel, and the mRNAs of Ha3-II, Keratin 5, Keratin 14, and Keratin 19 were detected using a band analysis system (Bio-Rad gel image system).

[1] = tested on: human hair follicle dermal papilla cells (HHFDPC); assay: Proliferation of dermal papilla cells (MTT, absorbance at 540 nm); type: cell-based; settings: peptide 500 nM, 72 hours, FIG. 1
Method: While culturing human hair follicle dermal dermal papilla cells (HHFDPC), the absorbance was measured after treatment with the peptide of the present invention to confirm whether there was an effect of promoting the proliferation of the HHFDPC dermal papilla cells.
Specifically, HHFDPC (Sciencell, USA) was seeded at 4λ10^3 cells/well in a 96-well culture plate, cultured in MSC complete medium (mesenchymal stem cell complete media, Sciencell, USA) for 24 hours, and then the medium was replaced with serum free MSC complete medium and cultured for another 24 hours. Then, the HHFDPC was treated with the peptide of SEQ ID NO: 1 prepared in the Preparation Example at concentrations of 500 nM, 5 μM, and 50 μM, respectively, and cultured at 37° C. for 72 hours. As a positive control, minoxidil was treated at a concentration of 1 μM, and as a negative control, HHFDPC without any treatment was used. Then, 10 μl of 5 mg/mL MTT solution was added and cultured in a 37° C. CO2 incubator for 4 hours to stain the cells. After removing the medium, the cells were treated with 100 μl of DMSO and shaken for 10 minutes, and the number of HHFDPC cells was confirmed by measuring absorbance at a wavelength of 540 nm using a spectrophotometer.

[2] = tested on: DKK-1 protein (dickkopf-related protein 1); assay: Western blotting of DKK-1 protein in DHT-treated HHFDPC; type: cell-based, human; settings: HHFDPC with DHT 100 nM, peptide 500 nM, 5 μM, 50 μM, 24 hours, FIG. 5
Method: DKK-1 protein (dickkopf-related protein 1) is a hair loss-related protein known to be highly expressed in individuals with hair loss, especially male pattern hair loss, and its expression is known to be promoted by hormones such as DHT (Dihydrotestosterone). Accordingly, the expression of DKK-1 protein was induced by treating HHFDPC cells with DHT together with the peptide according to the Preparation Example of the present invention, and then the expression level of DKK-1 was measured through Western blotting to determine whether there was an effect of suppressing the expression of DKK-1 protein.
Specifically, HHFDPC as in [Experiment Example 1-1] was seeded in a 6-well culture plate at 4λ10^5 cells/well and then cultured in MSC complete medium (mesenchymal stem cell complete media) for 24 hours. Next, the medium was replaced with serum free MSC complete medium and cultured again for 24 hours. In addition, the HHFDPC was treated with the peptide of SEQ ID NO: 1 prepared in the Preparation Example at concentrations of 500 nM, 5 μM, and 50 μM, respectively, and at this time, DHT, an expression inducer of DKK-1 protein, was simultaneously treated at a concentration of 100 nM and then cultured at 37° C. for 24 hours. […] After washing again with 0.1% PBS-T (0.1% Tween-20 in PBS) three times for 15 minutes each, DKK-1 protein was detected by treatment with ECL solution (GE Healthcare, USA).

p-AKT = assay: Western blotting of phosphorylated AKT in HHFDPC; type: cell-based, human; settings: peptide 500 nM, 5 μM, and 50 µM, 24 hours, FIG. 2
Method: (§3) First, phosphorylated forms of AKT and ERK, which act as signaling molecules related to the proliferation of HHFDPC, were confirmed through Western blotting. Specifically, HHFDPC as in [Experiment Example 1-1] above was seeded at 4λ10^5 cells/well in a 6-well culture plate, cultured in MSC complete medium (mesenchymal stem cell complete media) for 24 hours, and then the medium was replaced with serum free MSC complete medium and cultured for another 24 hours. Then, the HHFDPC was treated with the peptide of SEQ ID NO: 1 prepared in the Preparation Example at concentrations of 500 nM, 5 μM, and 50 µM, respectively, and cultured at 37° C. for 24 hours. As a positive control, minoxidil was treated at a concentration of 1 μM, and as a negative control, HHFDPC without any treatment was used. Then, Western blotting was performed to detect phosphorylated AKT and phosphorylated ERK. After washing with PBS, the cells were treated with 100 μl of lysis buffer to destroy cells, thereby obtaining cell lysate. After electrophoresis using a 10% SDS-PAGE gel, it was transferred to a PVDF membrane and blocked using 5% skim milk at room temperature for 30 minutes. […] After washing again with 0.1% PBS-T (0.1% Tween-20 in PBS) three times for 15 minutes each, p-AKT and p-ERK were detected by treatment with ECL solution (GE Healthcare, USA).

c-Myc = assay: RT-PCR of c-Myc expression in HHFDPC; type: cell-based, human; settings: peptide 500 nM, 5 μM, 50 μM, 24 hours, FIG. 4
Method: (§4) Furthermore, in order to determine whether the β-catenin moves to the nucleus and is activated to affect cell proliferation and differentiation, whether the expression of LEF-1, c-Myc and cyclin D1 (cyclin D1), which act as downstream factors, increases with β-catenin activation was confirmed through RT-PCR. Specifically, in the same manner as the previous Western blotting experiment, HHFDPC cells were cultured, treated with the peptides of the Preparation Example of the present invention at concentrations of 500 nM, 5 μM, and 50 μM, respectively, and cultured at 37° C. for 24 hours. After washing the cells with PBS, RNA was isolated by treating them with 300 μl of easy blue (intron, Korea). Then, cDNA was synthesized using a cDNA synthesis kit (enzynomics, Korea) by quantifying it with nano drop, and PCR was performed using primers for LEF-1, c-Myc and cyclin D1 (base sequences of the primer are listed in Table 2 below) and PCR premix (enzynomics, Korea). Electrophoresis was performed on a 1.5% agarose gel, and then the mRNA of LEF-1, c-Myc and cyclin D1 was detected using a band analysis system (Bio-Rad gel image system).

Keratin 5 = assay: RT-PCR of Keratin 5 expression in HHORSC; type: cell-based, human; settings: peptide 500 nM, 5 μM, 50 μM, 72 hours, FIG. 6
Method: as §2

LEF-1 = assay: RT-PCR of LEF-1 expression in HHFDPC; type: cell-based, human; settings: peptide 500 nM, 5 μM, 50 μM, 24 hours, FIG. 4
Method: as §4

cyclin D1 = assay: RT-PCR of cyclin D1 expression in HHFDPC; type: cell-based, human; settings: peptide 500 nM, 5 μM, 50 μM, 24 hours, FIG. 4
Method: as §4

β-catenin = assay: Western blotting of β-catenin moved into the nucleus of HHFDPC; type: cell-based, human; settings: HHFDPC nuclear protein, peptide 500 nM, 5 µM, and 50 μM, 24 hours, FIG. 3
Method: In addition, in addition to p-AKT and p-ERK, in order to confirm the activation of β-catenin, which is known to affect cell proliferation and differentiation, whether β-catenin moved into the nucleus was confirmed through Western blotting. Specifically, the HHFDPC as in [Experiment Example 1-1] was seeded in a 6-well culture plate at an amount of 4λ10^5 cells/well, cultured in MSC complete medium (mesenchymal stem cell complete media) for 24 hours. Next, the medium was replaced with serum free MSC complete medium and cultured again for 24 hours. Then, the HHFDPC was treated with the peptide of SEQ ID NO: 1 prepared in the Preparation Example at concentrations of 500 nM, […], and 50 μM, respectively, and cultured at 37° C. for 24 hours. As a positive control, minoxidil was treated at a concentration of 1 μM, and as a negative control, HHFDPC without any treatment was used. After washing with PBS, proteins in the nucleus were isolated using a nuclear protein extraction kit (Thermo scientific, USA). After electrophoresis using a 10% SDS-PAGE gel, it was transferred to a PVDF membrane and blocked using 5% skim milk at room temperature for 30 minutes. […] After washing again with 0.1% PBS-T (0.1% Tween-20 in PBS) three times for 15 minutes each, β-catenin was detected by treatment with ECL solution (GE Healthcare, USA).

MSX2 = assay: RT-PCR of MSX2 expression in HHGMC; type: cell-based, human; settings: peptide 500 nM, 5 μM, 50 μM, 72 hours, FIG. 7
Method: as §1

p-ERK = assay: Western blotting of phosphorylated ERK in HHFDPC; type: cell-based, human; settings: peptide 500 nM, 5 μM, and 50 µM, 24 hours, FIG. 2
Method: as §3

Keratin 19 = assay: RT-PCR of Keratin 19 expression in HHORSC; type: cell-based, human; settings: peptide 500 nM, 5 μM, 50 μM, 72 hours, FIG. 6
Method: as §2

Keratin 14 = assay: RT-PCR of Keratin 14 expression in HHORSC; type: cell-based, human; settings: peptide 500 nM, 5 μM, 50 μM, 72 hours, FIG. 6
Method: as §2

## HLPKPI [peptide of the present invention]
FOXN1
  amount of FOXN1 mRNA compared to the untreated control group: increased further
Ha3-II
  amount of Ha3-II mRNA compared to the control group without treatment: increased further
[1]; 5 μM, 50 μM, MTT, 540 nm
  absorbance (number of HHFDPC cells, proliferation) compared to the untreated control group: higher
[1]; 5 μM, and 50 μM vs minoxidil 1 μM
  proliferation promotion effect compared to the positive control group: better proliferation promotion effect than the positive control group
[2]
  concentration dependence of the decrease of DHT-increased DKK-1 expression: decreased again depending on the concentration
[2]; Western blotting
  amount of DKK-1 protein compared to the negative control group (DHT only): reduced
p-AKT
  phosphorylation of AKT (p-AKT) compared to the control group not treated with the peptide: increased
c-Myc
  amount of c-Myc mRNA compared to the control group without any treatment: increased further
Keratin 5
  amount of Keratin 5 mRNA compared to the control group without treatment: increased further
LEF-1
  amount of LEF-1 mRNA compared to the control group without any treatment: increased further
Cyclin D1
  amount of cyclin D1 mRNA compared to the control group without any treatment: increased further
β-catenin
  concentration dependence of β-catenin activation: further promoted depending on the concentration
β-catenin; Western blotting
  migration of β-catenin to the nucleus due to activation, compared to the control group not treated with the peptide: increased
MSX2
  amount of MSX2 mRNA compared to the untreated control group: increased further
p-ERK
  phosphorylation of ERK (p-ERK) compared to the control group not treated with the peptide: increased
Keratin 19
  amount of Keratin 19 mRNA compared to the control group without treatment: increased further
Keratin 14
  amount of Keratin 14 mRNA compared to the control group without treatment: increased further
